Test results: ChEMBL document CHEMBL1201862, “PubChem BioAssay data set” (2004)
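A five-concentration, 48-hour dose response in 96-well plates underlies each endpoint, interpolated linearly between surrounding concentrations. GI50: concentration for 50% inhibition of growth.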 Activity calls are given as the source filed them. No stated cut-off is given here; in the data, active = GI50 up to about 1.1 µM and inactive = higher.

Experiments:
Test in all cases: NCI-60 cell line screen, 48 h
MDA-N = tested on: MDA-N
ACHN = tested on: ACHN
CCRF-CEM = tested on: CCRF-CEM
IGROV-1 = tested on: IGROV-1
HL-60 = tested on: HL-60
HT-29 = tested on: HT-29
SNB-19 = tested on: SNB-19
NCI-H522 = tested on: NCI-H522
M14 = tested on: M14
HCT-15 = tested on: HCT-15
A549 = tested on: A549
MDA-MB-435 = tested on: MDA-MB-435
UO-31 = tested on: UO-31
EKVX = tested on: EKVX
LOX IMVI = tested on: LOX IMVI
Malme-3M = tested on: Malme-3M
OVCAR-8 = tested on: OVCAR-8
SF-268 = tested on: SF-268

Structure (SMILES)	GI50 (MDA-N)	GI50 (ACHN)	GI50 (CCRF-CEM)	GI50 (IGROV-1)	GI50 (HL-60)	GI50 (HT-29)	GI50 (SNB-19)	GI50 (NCI-H522)	GI50 (M14)	GI50 (HCT-15)	GI50 (A549)	GI50 (MDA-MB-435)	GI50 (UO-31)	GI50 (EKVX)	GI50 (LOX IMVI)	GI50 (Malme-3M)	GI50 (OVCAR-8)	GI50 (SF-268)
COc1cc(OC)c2c(=O)c(O)c(-c3ccc(OC)c(OC)c3)oc2c1	47.8 µM (inactive)	4.36 µM (inactive)	3.1 µM (inactive)	4.86 µM (inactive)	3.48 µM (inactive)	28.2 µM (inactive)	10.3 µM (inactive)	4.23 µM (inactive)	9.4 µM (inactive)	3.08 µM	5.85 µM (inactive)	22.6 µM (inactive)	8.85 µM (inactive)	7.14 µM (inactive)	3.78 µM (inactive)	> 28.1 µM (inactive)	3.83 µM (inactive)	4.11 µM (inactive)
COc1ccc(N2C(=O)C3c4[nH]c5c(C)cccc5c4C4CCC(C(C)(C)C)CC4C3C2=O)cc1 (configuration not stated)	> 10 µM (inactive)	5.12 µM (inactive)	> 10 µM (inactive)	> 10 µM (inactive)	3.3 µM (inactive)	2.32 µM (inactive)	> 10 µM (inactive)	> 10 µM (inactive)	> 10 µM (inactive)	> 10 µM	7 µM (inactive)	> 10 µM (inactive)	2.72 µM (inactive)	5.18 µM (inactive)	2.16 µM (inactive)	> 10 µM (inactive)	> 10 µM (inactive)	5.61 µM (inactive)
CC[C@H](C)[C@H]1NC(=O)[C@@H](NC(=O)[C@@H](CC(C)C)N(C)C(=O)C2CCCN2C(=O)[C@H](C)O)[C@@H](C)OC(=O)[C@H](Cc2ccccc2)N(C)C(=O)[C@@H]2CCCN2C(=O)[C@H](CC(C)C)NC(=O)[C@@H](C)C(=O)[C@H](C(C)C)OC(=O)C[C@@H]1O (some centres not stated)	< 0.00625 µM (active)	< 0.00625 µM (active)	< 0.00625 µM (active)	< 0.00625 µM (active)	0.122 µM (active)	< 0.00625 µM (active)	< 0.00625 µM (active)	< 0.00625 µM (active)	< 0.00625 µM (active)	0.00757 µM	< 0.00625 µM (active)	< 0.00625 µM (active)	< 0.00625 µM (active)	< 0.00625 µM (active)	< 0.00625 µM (active)	< 0.00625 µM (active)	< 0.00625 µM (active)	< 0.00625 µM (active)
O/N=C1\CC2(N3CCOCC3)CCC1(c1ccccc1)CC2	> 100 µM (inactive)	> 100 µM (inactive)	> 100 µM (inactive)	> 100 µM (inactive)	> 100 µM (inactive)	> 100 µM (inactive)	> 100 µM (inactive)	> 100 µM (inactive)	> 100 µM (inactive)	> 100 µM	> 100 µM (inactive)	> 100 µM (inactive)	> 100 µM (inactive)	> 100 µM (inactive)	> 100 µM (inactive)	> 100 µM (inactive)	> 100 µM (inactive)	> 100 µM (inactive)
O=C(Nc1sccc1S(=O)(=O)c1ccc(Cl)cc1)c1ccccc1	> 100 µM (inactive)	> 100 µM (inactive)	> 100 µM (inactive)	> 100 µM (inactive)	> 100 µM (inactive)	> 100 µM (inactive)	> 100 µM (inactive)	> 100 µM (inactive)	> 100 µM (inactive)	> 100 µM	> 100 µM (inactive)	> 100 µM (inactive)	> 100 µM (inactive)	> 100 µM (inactive)	> 100 µM (inactive)	> 100 µM (inactive)	> 100 µM (inactive)	> 100 µM (inactive)
CC1(C)C=C(/C=N/Nc2ccccc2)C(C#N)=C(O)C1(C#N)C#N	> 100 µM (inactive)	> 100 µM (inactive)	68.4 µM (inactive)	> 100 µM (inactive)	41.9 µM (inactive)	93.8 µM (inactive)	> 100 µM (inactive)	> 100 µM (inactive)	> 100 µM (inactive)	–	> 100 µM (inactive)	> 100 µM (inactive)	> 100 µM (inactive)	> 100 µM (inactive)	> 100 µM (inactive)	> 100 µM (inactive)	> 100 µM (inactive)	> 100 µM (inactive)
CCOC(=O)c1c(SCCN(CC)CC)n(-c2ccccc2)c(=S)n(-c2ccccc2)c1=O	2.7 µM (inactive)	1.73 µM (inactive)	1.26 µM (inactive)	5.16 µM (inactive)	1.73 µM (inactive)	4.47 µM (inactive)	17.9 µM (inactive)	1.56 µM (inactive)	1.74 µM (inactive)	2.54 µM	3.16 µM (inactive)	2.23 µM (inactive)	1.72 µM (inactive)	9.59 µM (inactive)	1.95 µM (inactive)	1.42 µM (inactive)	2.64 µM (inactive)	4.56 µM (inactive)
O=c1[nH]c(=O)n(C2CC(O)C(CO)O2)cc1Oc1ccccc1 (configuration not stated)	> 100 µM (inactive)	> 100 µM (inactive)	> 100 µM (inactive)	> 100 µM (inactive)	> 100 µM (inactive)	> 100 µM (inactive)	> 100 µM (inactive)	> 100 µM (inactive)	> 100 µM (inactive)	> 100 µM	> 100 µM (inactive)	> 100 µM (inactive)	> 100 µM (inactive)	> 100 µM (inactive)	> 100 µM (inactive)	> 100 µM (inactive)	> 100 µM (inactive)	> 100 µM (inactive)
COc1ccc2c(c1)/C(=C(\C(Cl)=C(\Cl)N1CCCCC1)[N+](=O)[O-])N2	> 100 µM (inactive)	> 100 µM (inactive)	40.7 µM (inactive)	90.6 µM (inactive)	> 100 µM (inactive)	> 100 µM (inactive)	> 100 µM (inactive)	39.4 µM (inactive)	> 100 µM (inactive)	> 100 µM	> 100 µM (inactive)	> 100 µM (inactive)	> 100 µM (inactive)	48.9 µM (inactive)	> 100 µM (inactive)	> 100 µM (inactive)	87.5 µM (inactive)	> 100 µM (inactive)
CCOC(=O)Cn1c(C(F)(F)F)nc2nc(Cl)c(Cl)nc21	37.2 µM (inactive)	> 45.6 µM (inactive)	20 µM (inactive)	22.8 µM (inactive)	19.7 µM (inactive)	51.9 µM (inactive)	34.4 µM (inactive)	20.8 µM (inactive)	41.3 µM (inactive)	37.2 µM	47.8 µM (inactive)	32.5 µM (inactive)	3.44 µM (inactive)	10.5 µM (inactive)	38.1 µM (inactive)	38.4 µM (inactive)	38.5 µM (inactive)	34 µM (inactive)
CC(=O)OC1COC(n2nc(N)nc2C)C(OC(C)=O)C1OC(C)=O (configuration not stated)	> 100 µM (inactive)	> 100 µM (inactive)	> 100 µM (inactive)	> 100 µM (inactive)	> 100 µM (inactive)	> 100 µM (inactive)	> 100 µM (inactive)	> 100 µM (inactive)	> 100 µM (inactive)	> 100 µM	> 100 µM (inactive)	> 100 µM (inactive)	> 100 µM (inactive)	> 100 µM (inactive)	> 100 µM (inactive)	> 100 µM (inactive)	> 100 µM (inactive)	> 100 µM (inactive)
